Experiments:
[1] = 101.33 kPa, Liquid; for speed of sound: Sing-around technique in a fixed-path interferometer; for mass density: Vibrating tube method; for viscosity: Capillary tube (Ostwald / Ubbelohde) method
[2] = refractive index (Na D-line) (dimensionless); details: 101.33 kPa, Liquid, Standard Abbe refractometry

CCOS(=O)(=O)[O-].CCc1cccc[n+]1CC [1,2-diethylpyridinium ethylsulfate]
Details | mass density, [1] [kg/m3] | refractive index, [2] | speed of sound, [1] [m/s] | viscosity, [1] [mPa·s]
293.15 K | 1223.6 | 1.5146 | 1759.3 | –
298.15 K | 1220.2 | 1.51328 | 1745.6 | 324.7
303.15 K | 1217 | 1.51192 | 1731.3 | 233.2
308.15 K | 1213.9 | 1.51057 | 1718.6 | 175.8
313.15 K | 1210.3 | 1.5092 | 1705.7 | 135.5
318.15 K | 1206.8 | 1.50788 | 1693 | 104
323.15 K | 1203.4 | 1.50648 | 1680.5 | 83.3
328.15 K | 1200.1 | 1.50513 | 1668.1 | 67.2
333.15 K | 1196.8 | 1.50376 | 1656.2 | 55
338.15 K | 1193.6 | 1.50239 | 1644.3 | 45.6
343.15 K | 1190.3 | 1.5009 | 1632.7 | 38.12

COS(=O)(=O)[O-].Cc1ccc[n+](C)c1 [1,3-dimethylpyridinium methyl sulfate]
Details | mass density, [1] [kg/m3] | refractive index, [2] | speed of sound, [1] [m/s] | viscosity, [1] [mPa·s]
293.15 K | 1305.87 | 1.5147 | 1834.9 | –
298.15 K | 1302.51 | 1.5133 | 1822.2 | 128.6
303.15 K | 1299.14 | 1.51184 | 1809.7 | 97.1
308.15 K | 1295.77 | 1.51051 | 1797.5 | 76.8
313.15 K | 1292.42 | 1.50911 | 1785.4 | 61.2
318.15 K | 1289.07 | 1.5077 | 1773.5 | 49.6
323.15 K | 1285.74 | 1.5062 | 1761.7 | 40.86
328.15 K | 1282.42 | 1.50472 | 1750 | 34.19
333.15 K | 1279.11 | 1.50331 | 1738.4 | 28.8
338.15 K | 1275.82 | 1.50193 | 1726.9 | 24.58
343.15 K | 1272.55 | 1.50046 | 1715.6 | 21.15

COS(=O)(=O)[O-].C[n+]1ccccc1 [1-methylpyridinium methylsulfate]
Details | mass density, [1] [kg/m3] | refractive index, [2] | speed of sound, [1] [m/s] | viscosity, [1] [mPa·s]
293.15 K | 1348.22 | 1.51431 | 1888.6 | –
298.15 K | 1344.83 | 1.51296 | 1876.4 | 116.2
303.15 K | 1341.44 | 1.51162 | 1864.4 | 91
308.15 K | 1338.07 | 1.51029 | 1852.6 | 73.1
313.15 K | 1334.71 | 1.50895 | 1840.9 | 59.7
318.15 K | 1331.35 | 1.50764 | 1829.4 | 49.3
323.15 K | 1328.01 | 1.50629 | 1817.9 | 41.29
328.15 K | 1324.69 | 1.50497 | 1806.5 | 35.41
333.15 K | 1321.38 | 1.50361 | 1795.2 | 30.22
338.15 K | 1318.09 | 1.50226 | 1784 | 26.16
343.15 K | 1314.82 | 1.5009 | 1772.8 | 22.77

CCc1cccc[n+]1C.COS(=O)(=O)[O-] [2-ethyl-1-methylpyridinium methyl sulfate]
Details | mass density, [1] [kg/m3] | refractive index, [2] | speed of sound, [1] [m/s] | viscosity, [1] [mPa·s]
293.15 K | 1288.3 | 1.52031 | 1869.2 | –
298.15 K | 1284.7 | 1.51902 | 1856 | 4559
303.15 K | 1281.3 | 1.5177 | 1842.4 | 3207
308.15 K | 1277.9 | 1.5164 | 1830.5 | 2329
313.15 K | 1274.49 | 1.51508 | 1818.4 | 1728
318.15 K | 1271.15 | 1.51374 | 1806.5 | 1293
323.15 K | 1267.6 | 1.51245 | 1794.9 | 1012
328.15 K | 1264.5 | 1.51115 | 1783 | 802
333.15 K | 1261.3 | 1.50982 | 1770.2 | 646
338.15 K | 1258.1 | 1.50852 | 1758.5 | 528
343.15 K | 1254 | 1.50722 | 1747 | 437
